Data published in PMC11438102, “Modulation of cannabinoid receptor 2 alters neuroinflammation and reduces formation of alpha-synuclein aggregates in a rat model of nigral synucleinopathy” (Journal of Neuroinflammation, 2024).

Assays:
[1] = system: human Asyn (pSer129, proteinase K-resistant, total) in substantia nigra; experiment: Immunohistochemistry of Asyn species in substantia nigra, optical density; type: in vivo; details: rat low cohort, 6 mg/kg i.p. daily 7 weeks
Experimental: Rats were administered unilateral injections of AAV2/5-human wild-type (WT) Asyn at titers of 2.9–4.3 × 10^11 vector genomes (vg)/mL (termed “low cohort”), which was previously shown to not induce nigral neurotoxicity [27]. Thereby, generating a model with overexpression of human WT Asyn and Asyn-mediated neuroinflammation. One week after surgery, animals were randomly selected to receive daily systemic injections of either SMM-189 (intraperitoneal (i.p.), 6 mg/kg, n = 12) or vehicle (i.p., n = 12) and followed for 8 weeks (Figs. 1; n = 2 rats per group were removed due to poor nigral targeting). […] After blood collection, animals were transcardially perfused with ice-cold PBS and the frontal cortex frozen for gene analysis, the striatum frozen for western blotting analysis, and the midbrain post-fixated in 4% PFA to be processed for immunohistochemistry. A second low cohort of rats (SMM-189 n = 6 or vehicle n = 3 with n = 2 removed due to poor nigral targeting) completed the study and provided extra tissue to perform additional immunohistochemical and western blotting analyses.
Brains were post-fixed in 4%PFA for 48 h and transferred to 30% sucrose and cut at 40 μm on a freezing microtome. In brief, endogenous peroxidase was quenched with 3% hydrogen peroxide, blocked with 8% normal serum, avidin (Vector Cat#SP-2001) and 0.1% Triton-X and incubated overnight at 4°C with biotin (Vectorlabs Cat#SP-2001), normal serum and primary antibodies specific for Asyn (Clone 4B12; BioLegend Cat# 807801, RRID: AB_2564730), pSer129 Asyn (Clone EP1536Y; Abcam Cat# ab51253, RRID: AB_869973), CD68 (Bio-Rad Cat# MCA341R, RRID: AB_2291300), MHCII (Bio-Rad Cat# MCA46GA, RRID: AB_567369), and CD163 (Bio-Rad Cat# MCA342A, RRID: AB_2074557). Tissue was incubated in appropriate biotinylated secondary antibodies (1:200), amplified with Vectastain ABC kit (Vectorlabs Cat#PK-6100) and developed with diaminobenzidine tablets or diaminobenzidine drop kit with nickel (Vector Cat#SK-4100) for CD68 immunostaining. […]

[2] = system: tyrosine hydroxylase, phosphorylated tyrosine hydroxylase, dopamine transporter, IBA1, GFAP in striatum; experiment: Western immunoblot of dopaminergic and glial markers in striatal lysates; type: in vivo; details: rat low cohort, 6 mg/kg i.p. daily 7 weeks, vs vehicle
Experimental: Striatal tissue from successfully targeted low cohort rats was homogenized in ice-cold TriZOL lysed using the TissueLyser system. Homogenates were incubated with 20% chloroform and centrifuged at 13,523g for 15 min at 4°C. Protein pellets were washed in methanol twice and resuspended in 1% SDS and heated to 50°C. Total protein concentrations were measured using Pierce BCA Protein Assay Kit and equal amount of protein (10–20 µg) mixed with Laemmli sample buffer were loaded in 4–20% TGX precast gels (Biorad) for gel electrophoresis. Protein was transferred to a PVDF membrane (Biorad) using a Trans Blot Turbo Transfer System, the immunoblots were immediately fixed with 0.4% paraformaldehyde (PFA) for 30 min and stained for total protein using Revert 700 (Licor) for reliable normalization. Revert staining was captured and measured on the Licor Odyssey at 700 nm for 30 s.
Non-specific protein binding was blocked with 5% milk and 0.1% Tween-20 in TBS for 1 h at room temperature, and membranes incubated with primary antibodies overnight at 4°C. The blots were washed with 0.1%TBS-Tween-20, incubated with appropriate horseradish peroxidase-conjugated secondary antibodies (1:2000) at room temperature for 1 h and developed with SuperSignal West Femto Enhancer or Pico Peroxide solutions under a chemiluminescent detection imaging system (Licor Odyssey). The density of the band was quantified using StudioLite software. Relative expression levels were normalized to its own total protein and to vehicle average expression level.

brain immune cells = experiment: Multicolor flow cytometry of brain immune cells (high cohort); type: in vivo, rat
Experimental: An additional cohort of rats (termed “high cohort”) was evaluated to determine effects of SMM-189 on immune cell populations in the brain, resident or infiltrating, and the periphery as measured by flow cytometry (Fig. 1). To ensure infiltrating peripheral immune cells, rats were stereotaxically injected with a higher titer of AAV2/5-human WT Asyn (4.6 × 10^12 vg/mL) and underwent an identical drug treatment timeline with animals sacrificed at 4 (SMM-189: n = 5; vehicle: n = 6) and 8 weeks (SMM-189: n = 7; vehicle: n = 7). At sacrifice, animals were deeply anesthetized with euthasol (i.p., 150 mg/kg) and rapid decapitation performed using a sharp guillotine. Brains were collected at endpoints, and brain immune cells isolated and evaluated using multicolor flow cytometry. Additionally, blood was collected at baseline, 4 and 8 weeks (SMM-189: n = 13; vehicle: n = 13) after stereotaxic surgery for PBMCs isolation to immunophenotype using flow cytometry and for plasma evaluation of SMM-189.
Brains were collected from animals in the high cohort at either 4 or 8 weeks after AAV2/5-human WT Asyn and brain immune cells were isolated from individual hemispheres as previously described. Hemispheres were finely cut in RPMI 1640 media (Gibco Cat#11875-093) with a scalpel blade and enzymatically dissociated with collagenase VIII (1.4U/mL; Sigma Cat#C2139) and DNAse1 (1 mg/mL; Sigma Cat#DN25) in 37°C for 15 min. Enzymes were neutralized with 10%FBS (heat inactivated, Atlanta Biologicals Cat#S11150) in RPMI 1640 complete media and centrifuged 400g at room temperature. Tissue was resuspended in 1x HBSS and mechanically dissociated using a fire-polished Pasteur pipette until a cell suspension was generated. The suspension was passed through a 70µM cell strainer and strainers rinsed twice with 1x HBSS. To remove myelin, the strained suspension was centrifuged at 300g at 4 °C for 5 min and resuspended in 37% percoll and layered between 70% and 30% percoll gradients. The samples were centrifuged at 400g for 30 min at room temperature with the brake disabled. The top myelin layer was aspirated and demyelinated immune cells were collected from the 37% and 70% percoll interface with a pipette and washed with 1x HBSS twice, resuspended in PBS and placed in a 96-well v-bottom plate for flow cytometry staining.
Peripheral and central immune cell staining was performed similarly as previously published protocols. In brief, immune cells were washed and resuspended in PBS, then incubated for 30 min at room temperature in LIVE/DEAD Fixable Red Dead cell stain (ThermoFisher Scientific Cat#L23102; 1:2000). Following two washes in PBS, Fc receptors were blocked with anti-rat CD32 Fc block diluted 1:100 in FACS buffer (1mM EDTA and 0.1% sodium azide in PBS) for 15 min at 4°C. PBMCs were stained for separate myeloid and lymphoid panels and brain immune cells stained with an antibody panel to identify microglia, monocytes and lymphocytes (Table S1-S3). Fluorophore conjugated antibodies diluted with FACS buffer were incubated at 4 °C for 20 min. Cells stained for surface myeloid markers were fixed in 1% PFA for 25 min and washed in FACS.
PBMCs stained with lymphoid panel were further probed intracellularly for transcriptional marker Foxp3 to label […] T cells. […] Then washed and resuspended in FACs buffer. All samples had 10uL of AccuCheck Counting beads (ThermoFisher Cat#PCB100) added to final suspension and cells were run on a LSRII Instrument (BD Biosciences, Franklin Lakes, NJ) with FACSDiva software (BD Biosciences). Results were analyzed using FlowJo 10.8.1 software and brain immune populations of monocytes (classical and non-classical), lymphocytes (CD4 + and CD8+) or microglia and PBMC populations defined by specific strategies (Figure S1-S3). […]

[3] = 4 weeks, high cohort, treatment effect vs vehicle
[4] = 8 weeks, high cohort, treatment effect
[5] = 8 weeks, high cohort, vs control
[6] = 8 weeks, high cohort, vs vehicle

Question: Which results are given for `O=C(c1ccccc1)c1cc(O)c(-c2cc(Cl)cc(Cl)c2)c(O)c1` [SMM-189]?
Answer: total human Asyn in substantia nigra, optical density ([1]; clone 4B12, vs vehicle): not different; pS129-ir optical density in substantia nigra, normalized to vehicle ([1]; lesioned nigra): reduced; proteinase-K resistant Asyn in substantia nigra, optical density ([1]; vs vehicle): decreased; myeloid marker IBA1 in striatum, western [2]: no differences; phosphorylated tyrosine hydroxylase in striatal lysates [2]: no significant changes; tyrosine hydroxylase in striatal lysates [2]: no significant changes; astrocyte marker GFAP expression levels in striatum, western ([2]; p = 0.0746): trend to decrease; dopamine transporter in striatal lysates ([2]; trend to increase p = 0.051): no significant changes; CD3+ lymphocytes parent population in brain (brain immune cells; 4 weeks, high cohort): No CD3 + lymphocytes parent population differences; CD8 T cell frequencies in brain (brain immune cells; 4 weeks, high cohort): not significantly different; MHCII MFI on microglia (brain immune cells; 4 weeks, high cohort): no changes; classical or non-classical monocyte subset frequencies in brain (brain immune cells; 4 weeks, high cohort): no treatment differences; frequency of microglia (brain immune cells; 4 weeks, high cohort): no difference; frequencies of CD4+ T cells in brain (brain immune cells; 4 weeks, high cohort, treatment effect): overall reduction; frequency of CD45hiCD11b myeloid/monocytes in brain (brain immune cells; [3]): reduced; frequency of CD163+ macrophages in brain (brain immune cells; [3]): reduced; MFI of CD11b on microglia (brain immune cells; 4 weeks, unlesioned hemispheres, vs control): reduced; intensity of MHCII on microglia (brain immune cells; 8 weeks, high cohort): no different; microglial MFI of CD11b (brain immune cells; [4]): elevated; microglial MFI of CD172a (brain immune cells; [4]): elevated; brain population frequency of lymphocytes (CD45+CD11b-) (brain immune cells; [5]): did not affect; brain population frequency of macrophages (CD11b+CD163+) (brain immune cells; [5]): did not affect; brain population frequency of microglia (CD45loCD11b+) (brain immune cells; [5]): did not affect; brain population frequency of monocytes (CD45hiCD11b+) (brain immune cells; [5]): did not affect; CD4+ lymphocytes in brain (brain immune cells; [6]): increased; CD8+ lymphocytes in brain (brain immune cells; [6]): decreased; frequency of MHCII+ classical (CD43-) monocytes in brain (brain immune cells; 8 weeks, lesioned hemispheres, vs vehicle): elevated
